1 compound from ChEMBL document CHEMBL1158083, “Indole alkaloids from Cephalanceropsis gracilis” (J Nat Prod, 2006) can be followed below.

Assay type in all cases: functional, cell-based
In one experiment the test system is SF-268. The experiment is described as follows: Cytotoxicity against human SF-268 cells by MTT assay. (In general: Tetrazolium dyes change colour on reduction, which living cells bring about.)
A further experiment deals with MCF7. Nature of the experiment: Cytotoxicity against human MCF7 cells by MTT assay.
Another experiment relates to NCI-H460. The experiment is described as follows: Cytotoxicity against human NCI-H460 cells by MTT assay.

As usually defined, the IC50 is the concentration at which inhibition is half-maximal. A higher IC50 goes with a need for much substance. Regarding `O=C1C(C2(C3(C4=Nc5ccccc5C4=O)Nc4ccccc4C3=O)Nc3ccccc3C2=O)=Nc2ccccc21` (stereo not drawn) [CEPHALINONE D], the figures for the IC50 with SF-268, with MCF7 and in the experiment with NCI-H460 were 12.2 µM, 7.57 µM and 7.8 µM, respectively.
